{"source": "EPA's ToxValDB 9.5 (doi:10.2903/j.efsa.2006.57r)", "key": {"[1]": {"tested_on": "Canidae", "conditions": "chronic; duration: 1 years; oral; Dog Other; body weight"}, "[2]": {"tested_on": "Colinus virginianus", "conditions": "reproduction developmental; F"}, "[3]": {"tested_on": "Anas platyrhynchos", "conditions": "acute; oral; unspecified; mortality"}, "[4]": {"tested_on": "Daphnia magna", "conditions": "chronic/long-term; duration: 21 days; mortality"}, "[5]": {"tested_on": "Oryctolagus sp.", "conditions": "reproduction developmental"}, "[6]": {"tested_on": "Ictalurus punctatus", "conditions": "acute; duration: 96 hours; mortality"}, "[7]": {"tested_on": "Cucumis sativus", "conditions": "not reported; other"}, "[8]": {"tested_on": "Pimephales promelas", "conditions": "chronic/long-term; duration: 35 days; other"}, "[9]": {"tested_on": "Rattus norvegicus", "conditions": "oral"}, "[10]": {"tested_on": "Apis mellifera", "conditions": "acute, mortality"}, "[11]": {"tested_on": "Tagia sp.", "conditions": "acute; mortality"}, "[12]": {"tested_on": "Aphidius rhopalosiphi", "assay": "LR50; higher = less toxic", "conditions": "not reported; mortality"}, "[13]": {"tested_on": "Typhlodromus pyri", "assay": "LR50; higher = less toxic", "conditions": "not reported; mortality"}}}
{"smiles": "CCOC(=O)C1CC(=O)C(=C(O)C2CC2)C(=O)C1", "note": "(stereo not given) [Trinexapac-ethyl]", "values": [{"measurement": "NOAEL", "setting": "[1]", "value": 32, "unit": "mg/kg-day"}, {"measurement": "NOEC", "setting": "[2]", "value": "≥ 53.3", "unit": "mg/kg-day"}, {"measurement": "LD50", "setting": "[3]", "value": "> 2000", "unit": "mg/kg"}, {"measurement": "NOEC", "setting": "[4]", "value": 2.4, "unit": "mg/L"}, {"measurement": "NOAEL", "setting": "[5]", "value": 60, "unit": "mg/kg-day"}, {"measurement": "LC50", "setting": "[6]", "value": 35, "unit": "µg/mL"}, {"measurement": "NOEC", "setting": "[7]", "value": "> 24", "unit": "g/ha"}, {"measurement": "NOEC", "setting": "[8]", "value": 0.41, "unit": "mg/L"}, {"measurement": "LD50", "setting": "[9]; acute, mortality", "value": 4210, "unit": "mg/kg"}, {"measurement": "NOAEL", "setting": "[9]; subchronic, duration: 90 days, body weight", "value": "≤ 34", "unit": "mg/kg-day"}, {"measurement": "LD50", "setting": "[10]; dermal", "value": 69.6, "unit": "µg/piece"}, {"measurement": "LD50", "setting": "[10]; oral, unspecified", "value": "> 108", "unit": "µg/piece"}, {"measurement": "LC50", "setting": "[11]", "value": "> 250", "unit": "mg/kg"}, {"measurement": "LR50", "setting": "[12]", "value": 114, "unit": "g/ha"}, {"measurement": "LR50", "setting": "[13]", "value": 197, "unit": "g/ha"}]}
